Data set [1] has as its target T1, human C5a receptor (CD88) (Homo sapiens, UniProt P21730).
T1 construct: expressed in transfected cells; host or cells: rat basophilic leukemia (RBL) cells, stably transfected
T1 sequence (P21730 1-350): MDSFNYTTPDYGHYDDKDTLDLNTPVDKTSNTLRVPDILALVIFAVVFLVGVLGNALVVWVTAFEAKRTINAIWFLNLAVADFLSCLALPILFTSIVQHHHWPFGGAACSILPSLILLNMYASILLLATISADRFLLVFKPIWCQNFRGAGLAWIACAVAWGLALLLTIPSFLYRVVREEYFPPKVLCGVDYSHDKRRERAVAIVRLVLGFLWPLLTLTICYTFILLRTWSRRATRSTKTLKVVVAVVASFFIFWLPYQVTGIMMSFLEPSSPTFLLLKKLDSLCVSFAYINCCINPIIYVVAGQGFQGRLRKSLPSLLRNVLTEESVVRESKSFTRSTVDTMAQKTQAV
Briefly: C5a induced enzyme (glucosaminidase) release assay in RBL cells expressing the human C5a receptor (Example 28). The data set is classed as cell-based. Particulars: inhibition of C5a induced enzyme release, RBL cells with human C5aR; read-out: Activity-range (antagonistic activity, IC50 enzyme release). The gist of the method: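 Rat basophilic leukemia (RBL) cells expressing human C5a receptor, at 2×10^6 cells/ml, primed with cytochalasin B, then incubated with test compound 10 min at 37 °C.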

Data set [2] has as its system E. coli induced oxidative burst in human whole blood. Put plainly: E. coli induced oxidative burst in human whole blood (Phagoburst kit, Example 26). To be noted: read-out: IC50 for the inhibition of the E. coli induced oxidative burst in human whole blood. It is filed as cell-based. The protocol: The whole blood assay is carried out according to the instructions from the Phagoburst-Kit (Orpegen Pharma). 50 μg/ml of Refludan is used to inhibit blood clotting (Mollnes et al. 2002 Blood 100: 1869). Freshly drawn, anticoagulated blood is cooled over ice and 100 μl thereof are added to 10 μl of the compound solution containing at most 1.3% of DMSO. The mixture is incubated for 10 minutes at 37° C. After this the samples are put on ice again and 20 μl of opsonisated E. coli suspension (10^9 cells/ml) is added followed by 10 minutes of incubation at 37° C. 20 μl of the substrate are added to the cells followed by another 10 minutes of incubation at 37° C. After this 2 ml of lysis buffer are added to the cells, which are then kept at room temperature for 20 minutes. The cellular components are separated by centrifugation at 250×g for 5 minutes. The supernatant is discarded and 3 ml of washing solution are added to the pellet. The cells are centrifuged again and the resulting pellet is taken up in 200 μl DNA staining solution. The neutrophiles are analysed by means of a FACS device (FACSCalibur, Becton-Dickinson) according to the parameters given in the manual. […] It can be seen that, due to the determined activity, the compounds of this invention are suited to be used as therapeutics in human.

A short description of data set [3]: Solubility in aqueous HEPES buffer by HPLC (Example 33). It is filed as physicochemical. To be noted: kinetic from dmso stock. The protocol: To determine the solubility the compound to be measured is dissolved (e.g, […] of a 5 mM solution in DMSO) in organic solvent (e.g. 198 μl DMSO) as well as in aqueous buffer solution (e.g. 198 μl HEPES buffer). Both solutions are analyzed via analytical HPLC and the areas under the peaks are compared. The value for the organic solution is taken as 100%.

In brackets after ≈: the same amount, converted by molar mass.

With `CCc1ccc(N(Cc2ccc(C)nc2)C(=O)Nc2c(CC)c(N)cc(Cl)c2CC)cc1` [compound 106, 3-(3-amino-5-chloro-2,6-diethyl-phenyl)-1-(4-ethyl-phenyl)-1-(6-methyl-pyridin-3-ylmethyl)-urea], the half-inhibitory concentration (IC50) (usually the concentration needed to halve the response being measured) in data set [1] was 60 to 200 nM; in data set [2], 1600 nM. For the same molecule, in data set [3], the solubility (commonly how much of the substance goes into solution per volume) was 83 µM (≈ 37.4 µg/mL).

For `CCc1c(N)cc(Cl)c(CC)c1NC(=O)N(Cc1ccc(Cl)cc1)c1ccc(CC(F)(F)F)cc1` [compound 103, 3-(3-amino-5-chloro-2,6-diethyl-phenyl)-1-(4-chloro-benzyl)-1-[4-(2,2,2-trifluoro-ethyl)-phenyl]-urea], the figures for the IC50 in data set [1] and in data set [2] were 60 to 200 nM and 800 nM, respectively. The molecule also had a solubility in data set [3] of 7 µM (≈ 3.67 µg/mL).

As for `CCc1ccc(N(C(=O)Nc2c(CC)c(N)cc(Cl)c2CC)C(C)c2ccc3c(c2)ncn3C)cc1` (stereo not drawn) [compound 122, 3-(3-amino-5-chloro-2,6-diethyl-phenyl)-1-(4-ethyl-phenyl)-1-[1-(1-methyl-1H-benzoimidazol-5-yl)-ethyl]-urea], the figures for the IC50 in data set [1] and in data set [2] were 60 to 200 nM and 3500 nM, respectively. In data set [3], the concentration in solution (solubility) came to 29 µM (≈ 14.6 µg/mL).

Source of the values: patent US8071810B2, “C5a receptor antagonists” (Jerini AG, priority 2005, dated 2011).
